# Source: patent US20200354348A1, “SEMISYNTHETIC AURONES AND METHODS OF USE THEREOF” (University of Kentucky Research Foundation, priority 2018, published 2020)
# “Also recorded” adds a separate entry of the source.
# What was measured:
# OVCAR-5 = assay: NCI60 screening; assay type: cell-based; details: Homo sapiens, Ovarian Cancer
# LS174T cells = assay: Proliferation inhibition assay, LS174T; assay type: cell-based; details: Homo sapiens, LS174T, Table 2
# Experimental: (§1) Cell Culture. LS174T (colon cancer cells), PC-3 (prostate cancer cells), MCF-7 (beast) and A549 (lung) were cultured in the medium recommended by American Type Culture Collection at 37° C. with 5% CO2 atmosphere in a water jacketed incubator. Ovcar-8 and NCI/ADR-RES are gifts from Dr. Markos Leggas. Alpha-tubulin antibodies, TRITC-conjugated anti-rabbit antibody.
# (§2) Proliferation inhibition assay. Cancer cells were seeded into 24-well plates at a density of 20,000 cells per well in 1 mL of culture medium and cultured overnight at 37° C. Compounds and the vehicle control DMSO were added to the cells. After 6 days, medium was removed and 100 μL of trypsin was added. Then the cells resuspended in pbs were counted by Vi-CELL XR 2.03 (Beckman Coulter, Inc. USA). The ratio R of the number of viable cells in the compound treatment group to the number of viable cells in DMSO treatment group was taken as relative growth, and the percentage growth inhibition was calculated as: (1−R)*100. For initial testing, compounds were added to the cells at a final concentration 10 μM. Active compounds at 10 μM would be tested at lower concentrations.
# Loucy = assay: IC50 in leukemia cell lines; assay type: cell-based; details: T-ALL
# NCI-H226 = assay: NCI60 screening; assay type: cell-based; details: Homo sapiens, Non-Small Cell Lung Cancer
# NCI-H522 = assay: NCI60 screening; assay type: cell-based; details: Homo sapiens, Non-Small Cell Lung Cancer
# HCC1007-BL = assay: IC50 in leukemia cell lines; assay type: cell-based; details: Normal B-Lymphoblast
# tubulin = assay: In vitro tubulin polymerization assay; assay type: biochemical; details: 5 μM
# Experimental: In vitro tubulin polymerization assay. The in vitro tubulin polymerization assay was performed by referring tubulin manufacturer's protocol. Briefly, tubulin powder (Cytoskeleton Inc. USA) was dissolved in cold buffer [100 mM PIPES (pH 6.9), 2 mM MgCl2, 1 mM GTP, and 5% glycerol] on ice. Then aliquots (80 μL, 3.75 μg/μL) of the obtained tubulin solution were divided into the wells of a 96-well half-area plate (Corning, USA). After adding DMSO or testing compounds, the plate was mounted to a Spectra MR™ microplate spectrophotometer equipped with a thermal controller allowing to adjust the temperature to 37° C. (DYNEX Technologies Limited, USA). Readings at 350 nm were recorded every 30 s for 1 hour.
# NCI-BL2009 = assay: IC50 in leukemia cell lines; assay type: cell-based; details: NCI-BL2009, Normal B-Lymphoblast
# A498 = assay: NCI60 screening; assay type: cell-based; details: Homo sapiens, Renal Cancer
# RPMI58402 = assay: IC50 in leukemia cell lines; assay type: cell-based; details: RPMI58402, T-ALL
# NCI-H322M = assay: NCI60 screening; assay type: cell-based; details: Homo sapiens, Non-Small Cell Lung Cancer
# [1] = tested on: PC-3, LS174T and HEK293T cells; assay: Cell morphology; assay type: cell-based; details: 300 nM, 6 h
# Jurkat = assay: IC50 in leukemia cell lines; assay type: cell-based; details: Homo sapiens, T-ALL
# NCI/ADR-RES = assay: NCI60 screening; assay type: cell-based
# OVCAR-4 = assay: NCI60 screening; assay type: cell-based; details: Homo sapiens, Ovarian Cancer
# HCC-2998 = assay: NCI60 screening; assay type: cell-based; details: Homo sapiens, Colon Cancer
# DND41 = assay: IC50 in leukemia cell lines; assay type: cell-based; details: DND41, T-ALL
# [2] = tested on: PC-3, LS174T, A549, MCF-7, Ovcar-8 and NCI/ADR-RES; assay: Inhibition of various cancer cell lines, five-day treatment (FIG. 2A); assay type: cell-based; details: 120 h
# Experimental: The inhibitory effects of aurones 4a and 4r were determined on various cancer cell lines including prostate cancer PC-3, colorectal cancer LS174T, lung cancer A549, breast cancer MCF-7, and ovarian cancer Ovcar-8 and NCI/ADR-RES (Tables 1-3, FIG. 2A).
# as §1
# as §2, with “After 6 days, medium was removed and 100 μL of trypsin was added.” left out
# PC-3 and LS174T cells = assay: Proliferation inhibition, Table 2; assay type: cell-based; details: Homo sapiens, read-out: inhibition at 300 nM concentrations
# Experimental: as §2
# PC-3 tumor xenografts = assay: PC-3 xenografts in nude mice; assay type: in vivo; details: 10 mg/kg/day
# Experimental: PC-3 cells suspended in PBS were subcutaneously injected to the lower flanks of immune-deficient nude mice at a density of 2×10^6 cells/200 ul (PBS). After tumor establishment, 4A formulated in tween80 (5%), DMSO (10%), PEG400 (25%) and PBS (60%) were administered in an intraperitoneal fashion to mice at a daily dose of 10 mg (compound)/kg (mouse). Blank vehicle was used as a control. Tumors and mouse weights were measured and tumor volumes were calculated as Length×width^2/2.
compound,measurement,setting,value
"CCn1cc(/C=C2\Oc3cc(OCC#N)ccc3C2=O)c2cc(OC)ccc21 [Aurone 4a, (Z)-2-((2-((1-Ethyl-5-methoxy-1H-indol-3-yl)methylene)-3-oxo-2,3-dihydrobenzofuran-6-yl)oxy)acetonitrile]",GI50,OVCAR-5,2520 nM
same,inhibition at 0.1 µM,LS174T cells; 100 nM,11 ± 11%
same,inhibition at 0.3 µM,LS174T cells; 300 nM,93 ± 14%
same,inhibition at 1 µM,LS174T cells; 1 μM,97 ± 0.4%
same,inhibition at 10 µM,LS174T cells; 10 μM,96 ± 0.8%
same,IC50,Loucy,334 nM
same,GI50,NCI-H226,57400 nM
same,GI50,NCI-H522,3130 nM
same,IC50,HCC1007-BL,1380 nM
same,tubulin polymerization in vitro,tubulin,inhibits tubulin polymerization
same,IC50,NCI-BL2009,1250 nM
same,GI50,A498,10300 nM
same,IC50,RPMI58402,301 nM
same,GI50,NCI-H322M,1430 nM
same,cell morphology,[1],Cell morphologies were changed
same,IC50,Jurkat,273 nM
same,cytotoxicity against multidrug-resistant cell line,NCI/ADR-RES; NCI/ADR-RES,potent cytotoxicity
same,substrate of P-glycoprotein,NCI/ADR-RES; inferred from NCI/ADR-RES cells expressing P-glycoprotein,not likely a substrate of P-glycoprotein
same,GI50,OVCAR-4,19000 nM
same,GI50,HCC-2998,3440 nM
same,IC50,DND41,210 nM
same,IC50,[2],50 to 300 nM
same,inhibition at 0.3 µM,PC-3 and LS174T cells,> 90%
same,gross toxicity / body weights of treated mice,PC-3 tumor xenografts,without significant effects on body weights; also recorded: no apparent gross toxicity; also recorded: no general toxicity
same,in vivo tumor inhibitory effect,PC-3 tumor xenografts; intraperitoneal,"inhibited PC-3 tumor xenografts; also recorded: significant, tumor-growth suppression"
